The values that follow are results of earlier work, collected in patent publication US10138221B2, “Salts of nilotinib and polymorphs thereof” (Sun Pharmaceutical Industries Limited, priority 2014, dated 2018).

Molecules are shown by their SMILES. Like-named read-outs stand apart in the source and are kept apart here.

For series [1] the following is noted: low solubility/low permeability.

Turning to `Cc1cn(-c2cc(NC(=O)c3ccc(C)c(Nc4nccc(-c5cccnc5)n4)c3)cc(C(F)(F)F)c2)cn1` [Nilotinib, 4-methyl-N-[3-(4-methyl-1H-imidazol-1-yl)-5-(trifluoromethyl)phenyl]-3-[[4-(3-pyridinyl)-2-pyrimidinyl]amino]-benzamide], the solubility result runs as follows: (acidic media) “soluble”; (buffer solutions of pH 4.5 and higher) “practically insoluble”. For the same compound, in series [1], the “Biopharmaceutics Classification System (BCS) class (solubility/permeability)” value was “class IV”.
